How the values were obtained:
[1] = biological target: T1, RCT (regulatory C-terminus of KEA3, KEA3 AA495-776) (Arabidopsis thaliana, UniProt Q9M0Z3); assay: temperature-related intensity change (TRIC), RED-tris-NTA labelled His-tag, one-site fit; type: binding
T1 sequence (Q9M0Z3 495-776): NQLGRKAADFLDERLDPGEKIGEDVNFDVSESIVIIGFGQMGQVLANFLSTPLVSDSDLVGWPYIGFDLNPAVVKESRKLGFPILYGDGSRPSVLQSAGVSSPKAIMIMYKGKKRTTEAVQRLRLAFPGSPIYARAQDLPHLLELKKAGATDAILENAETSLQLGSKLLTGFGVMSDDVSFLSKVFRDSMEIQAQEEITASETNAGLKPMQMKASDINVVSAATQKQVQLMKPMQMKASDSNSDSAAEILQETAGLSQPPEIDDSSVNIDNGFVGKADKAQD
From the text: temperature-related intensity change (TRIC), RED-tris-NTA labelled His-tag, one-site fit on RCT (regulatory C-terminus of KEA3, KEA3 AA495-776)

[2] = biological target: T1, RCT (regulatory C-terminus of KEA3, KEA3 AA495-776); assay: differential scanning fluorimetry (nanoDSF, intrinsic fluorescence); type: binding; details: pH 8.0, PBS; 50 and 500 µM ligand
[3] = biological target: T2, KEA3 (Arabidopsis thaliana, UniProt Q9M0Z3); assay: affinity pull-down with ATP-linked agarose beads, immunoblot; type: biochemical; details: solubilized thylakoids; ATP immobilised via linker
T2 construct: native full-length KEA3 in detergent-solubilized wild-type thylakoid membranes, detected with specific KEA3 antibody
T2 sequence (Q9M0Z3 73-776): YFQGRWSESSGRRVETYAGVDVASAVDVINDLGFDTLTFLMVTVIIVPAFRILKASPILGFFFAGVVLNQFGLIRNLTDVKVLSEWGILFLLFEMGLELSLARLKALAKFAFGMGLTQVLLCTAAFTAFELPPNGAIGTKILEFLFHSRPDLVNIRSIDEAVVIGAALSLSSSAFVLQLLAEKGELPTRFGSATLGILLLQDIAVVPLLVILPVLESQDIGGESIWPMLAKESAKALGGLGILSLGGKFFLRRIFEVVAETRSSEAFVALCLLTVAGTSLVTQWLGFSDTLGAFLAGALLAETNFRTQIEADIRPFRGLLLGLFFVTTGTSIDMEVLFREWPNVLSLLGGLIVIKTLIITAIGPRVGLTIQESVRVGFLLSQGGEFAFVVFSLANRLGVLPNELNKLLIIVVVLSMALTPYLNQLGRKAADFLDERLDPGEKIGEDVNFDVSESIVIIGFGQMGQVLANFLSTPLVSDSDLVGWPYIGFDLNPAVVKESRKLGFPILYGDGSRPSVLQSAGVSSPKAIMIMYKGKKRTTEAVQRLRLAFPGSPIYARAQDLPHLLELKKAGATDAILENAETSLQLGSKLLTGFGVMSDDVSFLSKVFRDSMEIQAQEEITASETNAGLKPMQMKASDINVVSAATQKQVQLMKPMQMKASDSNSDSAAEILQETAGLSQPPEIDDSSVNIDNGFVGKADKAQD

SMILES | Kd [1] [µM] | ΔTM [2] | affinity pull-down with ATP-linked agarose beads, immunoblot [3]
Nc1ncnc2c1ncn2[C@@H]1O[C@H](COP(=O)(O)OP(=O)(O)O)[C@@H](O)[C@H]1O [ADP] | 51 | Addition of either ADP or ATP yielded a concentration-dependent increase in the ΔTM of RCT | 
Nc1ncnc2c1ncn2[C@@H]1O[C@H](COP(=O)(O)OP(=O)(O)OP(=O)(O)O)[C@@H](O)[C@H]1O [ATP] | 42 | Addition of either ADP or ATP yielded a concentration-dependent increase in the ΔTM of RCT | KEA3 was detected on three of four different types of ATP-linked agarose beads
NC(=O)C1=CN([C@@H]2O[C@H](COP(=O)(O)OP(=O)(O)OC[C@H]3O[C@@H](n4cnc5c(N)ncnc54)[C@H](OP(=O)(O)O)[C@@H]3O)[C@@H](O)[C@H]2O)C=CC1 [NADPH] | 38 |  | 
NC(=O)c1ccc[n+]([C@@H]2O[C@H](COP(=O)(O)OP(=O)(O)OC[C@H]3O[C@@H](n4cnc5c(N)ncnc54)[C@H](OP(=O)(O)O)[C@@H]3O)[C@@H](O)[C@H]2O)c1 [NADP^+] | 8 |  | 
